What was measured:
Format in all cases: biochemical
PI3K-alpha = PI3K-alpha (Homo sapiens, UniProt P42336); assay: PI3K-alpha fluorescence polarization assay; details: read-out: PI3 Kinase α IC50
Protocol: (§1) The reaction buffer was 20 mM HEPES, pH 7.5, 2 mM MgCl2, 0.05% CHAPS; and 0.01% βME (added fresh). The Stop/Detection Buffer was 100 mM HEPES, pH 7.5, 4 mM EDTA, 0.05% CHAPS; ATP 20 mM in water; PIP2 (diC8, Echelon, Salt Lake City Utah cat #P-4508) 1 mM in water (MW=856.5). The GST-GRP was 1.75 mg/mL or 1.4 mg/mL in 10% glycerol. The Red detector (TAMRA) was 2.5 μM. Nunc 384-well black polypropylene fluorescent plates were used for PI3K assays.
(§2) The assay is run by placing 5 μL of diluted enzyme per well, then 5 μL of diluted compound (or 9.5 μL enzyme then 0.5 μL compound in DMSO) is added and mixed. Then, 10 μL substrate is added to start the reaction. The samples are incubated 30-60 minutes, then the reaction is stopped by adding 20 μL stop/detector mix. PI3K is diluted with reaction buffer (e.g., 5 μL or 7.5 μL PI3K into 620 μL reaction buffer), and 5 μL of diluted enzyme is used per well. A 5 μL portion of reaction buffer or of drug diluted in buffer (e.g., 4 μL/100 so final DMSO is 1% in reaction) is added to each. Pipetting up and down mixes the samples. Alternatively, the enzyme can be diluted to 1215 μL. In this case 9.8 μL is added per well and 0.2 μL compound is added in DMSO.
(§3) To prepare 1 mL of substrate solution, 955 μL reaction buffer, 40 μL PIP2, and 2.5 μL ATP are mixed. 10 μL of substrate is added to each well to start the reaction. […] The stop/detector mix is prepared by mixing 4 μL Red detector and 1.6 μL or 2.0 μL GST-GRP with 1 mL stop buffer, which results in 10 nM probe and 70 nM GST-GRP. 20 μL of the stop/detector mix is added to each well to stop the reaction. The plates are read after 30-90 minutes keeping the red probe solutions dark. For the zero time point, stop/detector mix is added to the enzyme just before adding substrate. For an extra control, stop/detector mix is added to buffer (no enzyme) and substrate or to just buffer (no substrate). […] The recommended reaction has 0.06 μL per 20 μL (0.015 μg/20 μL) or 0.01125 μg/15 μL or 0.75 μg/mL.
(§4) Plates are read on machines with filters for TAMRA. The units are mP with no enzyme controls reading app 190-220 mP units. Fully active enzyme reduces fluorescence polarization down to 70-100 mP after 30 minutes. An active compound raises the mP values halfway to control or to 120-150 mP units.

PI3K-gamma = PI3K-gamma (Homo sapiens, UniProt P48736); assay: PI3K-gamma fluorescence polarization assay; details: read-out: PI3 Kinase γ IC50
PI3K-gamma, sequence (P48736 whole entry, species assumed): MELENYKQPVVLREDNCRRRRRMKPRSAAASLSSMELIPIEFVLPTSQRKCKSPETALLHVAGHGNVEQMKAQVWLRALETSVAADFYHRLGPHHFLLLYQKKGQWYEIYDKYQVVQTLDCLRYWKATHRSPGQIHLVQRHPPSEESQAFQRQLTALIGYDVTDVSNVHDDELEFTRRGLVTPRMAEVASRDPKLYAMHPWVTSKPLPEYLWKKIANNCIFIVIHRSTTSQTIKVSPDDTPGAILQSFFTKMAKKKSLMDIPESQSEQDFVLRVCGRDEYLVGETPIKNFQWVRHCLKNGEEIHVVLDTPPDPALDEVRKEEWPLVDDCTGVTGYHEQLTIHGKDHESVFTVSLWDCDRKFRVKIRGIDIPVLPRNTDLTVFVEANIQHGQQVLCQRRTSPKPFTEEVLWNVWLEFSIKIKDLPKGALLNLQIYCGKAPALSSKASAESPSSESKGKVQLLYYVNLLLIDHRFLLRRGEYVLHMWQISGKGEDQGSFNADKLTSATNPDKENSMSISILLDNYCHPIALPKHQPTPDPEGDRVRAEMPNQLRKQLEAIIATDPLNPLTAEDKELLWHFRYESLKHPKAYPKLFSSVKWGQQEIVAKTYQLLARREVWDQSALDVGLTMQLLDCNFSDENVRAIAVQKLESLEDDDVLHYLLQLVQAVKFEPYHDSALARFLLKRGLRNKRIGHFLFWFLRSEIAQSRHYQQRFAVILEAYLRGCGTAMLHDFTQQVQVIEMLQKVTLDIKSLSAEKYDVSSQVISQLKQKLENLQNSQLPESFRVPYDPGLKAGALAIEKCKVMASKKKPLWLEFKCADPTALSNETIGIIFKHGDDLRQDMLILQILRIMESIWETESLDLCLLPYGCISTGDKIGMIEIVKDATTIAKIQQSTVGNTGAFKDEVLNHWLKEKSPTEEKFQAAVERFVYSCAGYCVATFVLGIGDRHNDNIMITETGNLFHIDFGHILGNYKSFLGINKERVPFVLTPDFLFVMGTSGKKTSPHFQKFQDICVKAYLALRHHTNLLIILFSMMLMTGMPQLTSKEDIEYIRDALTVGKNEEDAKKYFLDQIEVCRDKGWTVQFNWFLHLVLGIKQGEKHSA
Protocol: as §1, §2, §3, §4

Human mTOR = Human mTOR (Homo sapiens, UniProt P42345); assay: mTOR kinase assay (DELFIA format, purified enzyme); set-up: FLAG; details: read-out: TOR Kinase IC50

PI3K-alpha, sequence (P42336 whole entry, species assumed): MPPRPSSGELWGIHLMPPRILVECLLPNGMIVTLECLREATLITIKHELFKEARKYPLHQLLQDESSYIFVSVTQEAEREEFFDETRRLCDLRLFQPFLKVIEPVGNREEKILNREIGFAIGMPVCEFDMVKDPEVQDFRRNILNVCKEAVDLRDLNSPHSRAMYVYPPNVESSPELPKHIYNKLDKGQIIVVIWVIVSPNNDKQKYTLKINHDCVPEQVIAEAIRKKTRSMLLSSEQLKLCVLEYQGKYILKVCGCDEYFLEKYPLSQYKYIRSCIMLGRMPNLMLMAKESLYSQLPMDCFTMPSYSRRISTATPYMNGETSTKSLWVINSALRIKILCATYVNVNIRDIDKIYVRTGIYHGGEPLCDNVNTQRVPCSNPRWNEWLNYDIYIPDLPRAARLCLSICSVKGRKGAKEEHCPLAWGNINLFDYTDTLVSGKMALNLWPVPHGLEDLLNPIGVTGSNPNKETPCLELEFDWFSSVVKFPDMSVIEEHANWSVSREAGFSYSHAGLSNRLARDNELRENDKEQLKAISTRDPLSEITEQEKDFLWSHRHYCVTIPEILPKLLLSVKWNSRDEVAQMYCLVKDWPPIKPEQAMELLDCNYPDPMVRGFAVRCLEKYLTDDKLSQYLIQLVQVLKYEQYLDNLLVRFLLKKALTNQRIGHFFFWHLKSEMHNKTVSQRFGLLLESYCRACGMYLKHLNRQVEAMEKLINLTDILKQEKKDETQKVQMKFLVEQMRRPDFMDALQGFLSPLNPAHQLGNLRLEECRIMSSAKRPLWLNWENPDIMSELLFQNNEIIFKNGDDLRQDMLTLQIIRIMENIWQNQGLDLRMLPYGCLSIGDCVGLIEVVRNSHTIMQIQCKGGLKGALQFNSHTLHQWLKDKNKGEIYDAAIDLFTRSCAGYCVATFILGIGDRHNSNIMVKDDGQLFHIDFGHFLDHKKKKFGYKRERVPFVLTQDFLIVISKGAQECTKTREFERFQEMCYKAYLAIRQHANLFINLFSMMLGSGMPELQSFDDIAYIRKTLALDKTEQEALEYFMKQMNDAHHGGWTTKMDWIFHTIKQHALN
PI3K-alpha, sequence (P27986 whole entry partner, species assumed): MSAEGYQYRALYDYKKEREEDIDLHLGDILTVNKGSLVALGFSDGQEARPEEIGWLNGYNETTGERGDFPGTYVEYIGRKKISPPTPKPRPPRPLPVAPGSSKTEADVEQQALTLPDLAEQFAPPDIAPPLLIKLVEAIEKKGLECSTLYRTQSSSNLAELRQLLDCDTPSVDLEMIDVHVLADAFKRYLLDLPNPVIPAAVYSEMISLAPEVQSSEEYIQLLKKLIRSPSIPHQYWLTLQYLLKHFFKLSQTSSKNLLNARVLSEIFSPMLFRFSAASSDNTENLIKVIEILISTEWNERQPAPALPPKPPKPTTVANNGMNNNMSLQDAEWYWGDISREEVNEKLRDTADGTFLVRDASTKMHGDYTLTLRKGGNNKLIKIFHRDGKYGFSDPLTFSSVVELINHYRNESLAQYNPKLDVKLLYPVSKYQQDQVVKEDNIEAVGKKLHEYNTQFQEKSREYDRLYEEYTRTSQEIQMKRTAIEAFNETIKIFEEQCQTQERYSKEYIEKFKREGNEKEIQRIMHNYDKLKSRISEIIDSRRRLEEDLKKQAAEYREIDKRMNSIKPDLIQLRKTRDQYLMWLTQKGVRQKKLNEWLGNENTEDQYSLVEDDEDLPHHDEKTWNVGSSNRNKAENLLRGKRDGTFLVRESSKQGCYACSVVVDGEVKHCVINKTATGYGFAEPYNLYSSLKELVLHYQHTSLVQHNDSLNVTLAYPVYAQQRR

Compound | IC50 (PI3K-alpha) | IC50 (PI3K-gamma) | IC50 (Human mTOR)
Cn1ccc2c3nc(-c4cnc(N)nc4)nc(N4CCOCC4)c3ccc21 [Example 43, 5-(7-methyl-4-morpholin-4-yl-7H-pyrrolo[2,3-h]quinazolin-2-yl)pyrimidin-2-amine] | 48 nM | 426 nM | 247 nM
Cn1ccc2c3nc(-c4ccc(O)nc4)nc(N4CCOCC4)c3ccc21 [Example 48, 5-(7-methyl-4-morpholin-4-yl-7H-pyrrolo[2,3-h]quinazolin-2-yl)pyridin-2-ol] | > 10000 nM | > 10000 nM | 7550 nM
CN1CCC(S(=O)(=O)n2ccc3c4nc(-c5ccc(NC(=O)Nc6ccncc6)cc5)nc(N5CCOCC5)c4ccc32)CC1 [Example 63, 1-(4-{7-[(1-methylpiperidin-4-yl)sulfonyl]-4-morpholin-4-yl-7H-pyrrolo[2,3-h]quinazolin-2-yl}phenyl)-3-pyridin-4-ylurea] | 119 nM | 491 nM | 67 nM
Cn1ccc2c3nc(-c4ccc(NC(=O)Nc5ccccn5)cc4)nc(N4CCOCC4)c3ccc21 [Example 9, 1-[4-(7-methyl-4-morpholin-4-yl-7H-pyrrolo[2,3-h]quinazolin-2-yl)phenyl]-3-pyridin-2-ylurea] | 2700 nM | 5130 nM | 75 nM
CN(C)CCn1ccc2c3nc(-c4cnc(N)nc4)nc(N4CCOCC4)c3ccc21 [Example 34, 5-{7-[2-(dimethylamino)ethyl]-4-morpholin-4-yl-7H-pyrrolo[2,3-h]quinazolin-2-yl}pyrimidin-2-amine] | 201 nM | 3190 nM | 1300 nM
Cn1ccc2c3nc(-c4ccc(NC(=O)Nc5ccncc5)cc4)nc(N4CCOCC4)c3ccc21 [Example 11, 1-[4-(7-methyl-4-morpholin-4-yl-7H-pyrrolo[2,3-h]quinazolin-2-yl)phenyl]-3-pyridin-4-ylurea] | 101 nM | 437 nM | 3.7 nM
Cn1ccc2c3nc(-c4ccc(NC(=O)NCCCn5ccnc5)cc4)nc(N4CCOCC4)c3ccc21 [Example 8, 1-[3-(1H-imidazol-1-yl)propyl]-3-[4-(7-methyl-4-morpholin-4-yl-7H-pyrrolo[2,3-h]quinazolin-2-yl)phenyl]urea] | 431 nM | 3040 nM | 190 nM
CCNC(=O)Nc1ccc(-c2nc(N3CCOCC3)c3ccc4c(ccn4C)c3n2)cc1 [Example 3, 1-ethyl-3-[4-(7-methyl-4-morpholin-4-yl-7H-pyrrolo[2,3-h]quinazolin-2-yl)phenyl]urea] | 2110 nM | 4040 nM | 35 nM
CC(=O)Nc1ccc(-c2nc(N3CCOCC3)c3ccc4c(ccn4C)c3n2)cc1 [Example 16, N-[4-(7-methyl-4-morpholin-4-yl-7H-pyrrolo[2,3-h]quinazolin-2-yl)phenyl]acetamide] | 3080 nM | > 10000 nM | 370 nM
Cn1ccc2c3nc(-c4cccc(C=O)c4)nc(N4CCOCC4)c3ccc21 [Example 23, 3-(7-methyl-4-morpholin-4-yl-7H-pyrrolo[2,3-h]quinazolin-2-yl)benzaldehyde] | 5330 nM | 9500 nM | 320 nM
Cn1ccc2c3nc(-c4cccc(S(=O)(=O)NC5CC5)c4)nc(N4CCOCC4)c3ccc21 [Example 56, N-cyclopropyl-3-(7-methyl-4-morpholin-4-yl-7H-pyrrolo[2,3-h]quinazolin-2-yl)benzenesulfonamide] | 6970 nM | 6700 nM | 50 nM
O=C(OCc1ccccc1)N1CCC(S(=O)(=O)n2ccc3c4nc(-c5cccc(O)c5)nc(N5CCOCC5)c4ccc32)CC1 [Example 66, benzyl 4-{[2-(3-hydroxyphenyl)-4-morpholin-4-yl-7H-pyrrolo[2,3-h]quinazolin-7-yl]sulfonyl}piperidine-1-carboxylate] | 245 nM | 5750 nM | 2250 nM
O=C(Nc1ccncc1)Nc1ccc(-c2nc(N3CCOCC3)c3ccc4c(ccn4S(=O)(=O)C4CCN(C(=O)OCc5ccccc5)CC4)c3n2)cc1 [Example 61, benzyl 4-[(4-morpholin-4-yl-2-{4-[(pyridin-4-ylcarbamoyl)amino]phenyl}-7H-pyrrolo[2,3-h]quinazolin-7-yl)sulfonyl]piperidine-1-carboxylate] | 384 nM | 3490 nM | 130 nM
CN(C)CCn1ccc2c3nc(-c4ccc(NC(=O)Nc5ccncc5)cc4)nc(N4CCOCC4)c3ccc21 [Example 33, 1-(4-{7-[2-(dimethylamino)ethyl]-4-morpholin-4-yl-7H-pyrrolo[2,3-h]quinazolin-2-yl}phenyl)-3-pyridin-4-ylurea] | 222 nM | 862 nM | 15 nM
CCC(O)c1cccc(-c2nc(N3CCOCC3)c3ccc4c(ccn4C)c3n2)c1 (stereo not drawn) [Example 25, 1-[3-(7-methyl-4-morpholin-4-yl-7H-pyrrolo[2,3-h]quinazolin-2-yl)phenyl]propan-1-ol] | 7550 nM | > 10000 nM | 3050 nM
COCOc1cncc(-c2nc(N3CCOCC3)c3ccc4c(ccn4C)c3n2)c1 [Example 77, 2-[5-(methoxymethoxy)pyridin-3-yl]-7-methyl-4-morpholin-4-yl-7H-pyrrolo[2,3-h]quinazoline] | 451 nM | 933 nM | 525 nM
O=C(Nc1ccncc1)Nc1ccc(-c2nc(N3CCOCC3)c3ccc4c(ccn4S(=O)(=O)C4CCNCC4)c3n2)cc1 [Example 62, 1-{4-[4-morpholin-4-yl-7-(piperidin-4-ylsulfonyl)-7H-pyrrolo[2,3-h]quinazolin-2-yl]phenyl}-3-pyridin-4-ylurea] | 114 nM | 519 nM | 28 nM
CC(O)c1cccc(-c2nc(N3CCOCC3)c3ccc4c(ccn4C)c3n2)c1 (stereo not drawn) [Example 24, 1-[3-(7-methyl-4-morpholin-4-yl-7H-pyrrolo[2,3-h]quinazolin-2-yl)phenyl]ethanol] | 2350 nM | > 10000 nM | 1650 nM
CN(C)CCNC(=O)Nc1ccc(-c2nc(N3CCOCC3)c3ccc4c(ccn4C)c3n2)cc1 [Example 4, 1-[2-(dimethylamino)ethyl]-3-[4-(7-methyl-4-morpholin-4-yl-7H-pyrrolo[2,3-h]quinazolin-2-yl)phenyl]urea] | 728 nM | 2840 nM | 2050 nM
Cn1ccc2c3nc(-c4ccc(NC(=O)Nc5ccccc5)cc4)nc(N4CCOCC4)c3ccc21 [Example 10, 1-[4-(7-methyl-4-morpholin-4-yl-7H-pyrrolo[2,3-h]quinazolin-2-yl)phenyl]-3-phenylurea] | 71 nM | 247 nM | 21 nM
Cn1ccc2c3nc(-c4ccc(NC(=O)NCc5ccco5)cc4)nc(N4CCOCC4)c3ccc21 [Example 7, 1-(2-furylmethyl)-3-[4-(7-methyl-4-morpholin-4-yl-7H-pyrrolo[2,3-h]quinazolin-2-yl)phenyl]urea] | 1690 nM | 3500 nM | 560 nM
CS(=O)(=O)n1ccc2c3nc(-c4cccc(O)c4)nc(N4CCOCC4)c3ccc21 [Example 59, 3-[7-(methylsulfonyl)-4-morpholin-4-yl-7H-pyrrolo[2,3-h]quinazolin-2-yl]phenol] | 63 nM | 560 nM | 2600 nM
Cn1ccc2c3nc(-c4cccc5[nH]ncc45)nc(N4CCOCC4)c3ccc21 [Example 79, 2-(1H-indazol-4-yl)-7-methyl-4-morpholin-4-yl-7H-pyrrolo[2,3-h]quinazoline] | 1080 nM | 6090 nM | 435 nM
3-(7-methyl-4-morpholin-4-yl-7H-pyrrolo[2,3-h]quinazolin-2-yl)aniline [Example 41] | > 10000 nM | > 10000 nM | 1450 nM
COc1ncc(-c2nc(N3CCOCC3)c3ccc4c(ccn4C)c3n2)cn1 [Example 50, 2-(2-methoxypyrimidin-5-yl)-7-methyl-4-morpholin-4-yl-7H-pyrrolo[2,3-h]quinazoline] | 668 nM | > 10000 nM | 2350 nM

From patent US20090227575A1, “7H-PYRROLO[2,3-H]QUINAZOLINE COMPOUNDS, THEIR USE AS mTOR KINASE AND PI3 KINASE INHIBITORS, AND THEIR [sequence]” (Wyeth, priority 2008, published 2009)
